Values joined by “and” are separate entries in the source; they are usually repeats but may differ in a detail not shown here. Equal values may be shown once. Toxic doses and inconclusive results are not listed.
Tested on: L1210 leukemia ip in BDF1 mice, survival T/C
Assay: NCI In Vivo Anticancer Drug Screen. Data for tumor model L1210 Leukemia (intraperitoneal) in B6D2F1 (BDF1) mice
Conditions: endpoint: mean survival time, higher = longer survival
Summary of the method: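 Survival endpoint. Drug-treated group vs vehicle group, expressed as T divided by C. Tumor passaged by transplantation.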

[1] = dose: 100.0 mg/kg/injection, schedule: Q01DX001 (ip), vehicle: carboxymethylcellulose (CMC)
[2] = dose: 200.0 mg/kg/injection, schedule: Q01DX001 (ip), vehicle: carboxymethylcellulose (CMC)
[3] = dose: 100.0 mg/kg/injection, schedule: Q04DX002 (ip), vehicle: saline
[4] = dose: 100.0 mg/kg/injection, schedule: Q01DX009 (ip), vehicle: saline
[5] = dose: 100.0 mg/kg/injection, schedule: Q04DX003 (ip), vehicle: saline
[6] = dose: 200.0 mg/kg/injection, schedule: Q01DX009 (ip), vehicle: saline
[7] = dose: 200.0 mg/kg/injection, schedule: Q04DX003 (ip), vehicle: saline
[8] = dose: 400.0 mg/kg/injection, schedule: Q01DX009 (ip), vehicle: saline
[9] = dose: 400.0 mg/kg/injection, schedule: Q04DX003 (ip), vehicle: saline
[10] = dose: 100.0 mg/kg/injection, schedule: Q04DX003 (ip), vehicle: Klucel (hydroxypropylcellulose) (HPC)
[11] = dose: 200.0 mg/kg/injection, schedule: Q04DX003 (ip), vehicle: Klucel (hydroxypropylcellulose) (HPC)
[12] = dose: 400.0 mg/kg/injection, schedule: Q04DX003 (ip), vehicle: Klucel (hydroxypropylcellulose) (HPC)
[13] = dose: 25.0 mg/kg/injection, schedule: Q01DX009 (ip), vehicle: saline
[14] = dose: 50.0 mg/kg/injection, schedule: Q01DX009 (ip), vehicle: saline

Which results are given for O=C(Nc1ccc(Nc2ccccc2)cc1)Nc1ccccc1C(F)(F)F?
T/C (dose: 50.0 mg/kg/injection, schedule: Q01DX001 (ip), vehicle: carboxymethylcellulose (CMC)): 95 % of control; T/C (dose: 50.0 mg/kg/injection, schedule: Q04DX003 (ip), vehicle: carboxymethylcellulose (CMC)): 100 % of control; T/C [1]: 105 % of control; T/C (dose: 100.0 mg/kg/injection, schedule: Q01DX009 (ip), vehicle: carboxymethylcellulose (CMC)): 88 % of control; T/C (dose: 100.0 mg/kg/injection, schedule: Q04DX002 (ip), vehicle: carboxymethylcellulose (CMC)): 102 % of control and 106 % of control; T/C (dose: 100.0 mg/kg/injection, schedule: Q04DX003 (ip), vehicle: carboxymethylcellulose (CMC)): 93 % of control; T/C [2]: 92 % of control; T/C (dose: 200.0 mg/kg/injection, schedule: Q01DX009 (ip), vehicle: carboxymethylcellulose (CMC)): 86 % of control and 92 % of control; T/C (dose: 200.0 mg/kg/injection, schedule: Q04DX002 (ip), vehicle: carboxymethylcellulose (CMC)): 94 % of control and 97 % of control; T/C (dose: 400.0 mg/kg/injection, schedule: Q01DX009 (ip), vehicle: carboxymethylcellulose (CMC)): 92 % of control; T/C (dose: 400.0 mg/kg/injection, schedule: Q04DX002 (ip), vehicle: carboxymethylcellulose (CMC)): 94 % of control and 92 % of control

Which T/C (dose: 100.0 mg/kg/injection, schedule: Q01DX009 (ip), vehicle: other) does the source give for O=C(CNC(=O)c1ccccc1)Oc1c(Cl)c(Cl)c(Cl)c(Cl)c1Cl here?
Its T/C is 104 % of control.

What about the T/C (dose: 200.0 mg/kg/injection, schedule: Q01DX009 (ip), vehicle: other) of the same molecule?
Its T/C is 98 % of control.

What about the T/C (dose: 400.0 mg/kg/injection, schedule: Q01DX009 (ip), vehicle: other) of the same molecule?
Its T/C is 93 % of control.

What does the source list for CN1CCC(=O)c2ccccc21?
T/C (dose: 75.0 mg/kg/injection, schedule: Q01DX001 (ip), vehicle: other): 97 % of control; T/C (dose: 150.0 mg/kg/injection, schedule: Q01DX001 (ip), vehicle: other): 100 % of control; T/C (dose: 300.0 mg/kg/injection, schedule: Q01DX001 (ip), vehicle: other): 100 % of control

For O=C1C=C(c2ccccc2)S(=O)(=O)C(c2ccccc2)=C1, which T/C (dose: 37.5 mg/kg/injection, schedule: Q04DX002 (ip), vehicle: Klucel (hydroxypropylcellulose) (HPC)) is on record?
The T/C was 97 % of control.

What about the T/C (dose: 75.0 mg/kg/injection, schedule: Q01DX001 (ip), vehicle: carboxymethylcellulose (CMC)) of the same molecule?
Its T/C is 124 % of control.

And the T/C (dose: 75.0 mg/kg/injection, schedule: Q04DX002 (ip), vehicle: Klucel (hydroxypropylcellulose) (HPC))?
Its T/C is 108 % of control.

And the T/C (dose: 150.0 mg/kg/injection, schedule: Q04DX002 (ip), vehicle: Klucel (hydroxypropylcellulose) (HPC))?
The T/C was 101 % of control.

Which T/C [3] does the source give for CNCCC(=O)C1CCC(OC)CC1 (stereo unspecified) here?
Its T/C is 92 % of control.

What about the T/C (dose: 200.0 mg/kg/injection, schedule: Q04DX002 (ip), vehicle: saline) of the same molecule?
The T/C was 110 % of control.

CCC[CH2][Ge]([CH2]CCC)[O][Ge]([CH2]CCC)[CH2]CCC was tested. Which T/C (dose: 100.0 mg/kg/injection, schedule: Q04DX002 (ip), vehicle: saline with Tween-80) did it give?
Its T/C is 87 % of control.

How did the T/C [4] turn out when CCOC(CNC(=O)CC(C)=O)OCC was run?
Its T/C is 96 % of control.

And the T/C [5]?
Its T/C is 104 % of control.

And the T/C [6]?
The T/C was 104 % of control.

And the T/C [7]?
Its T/C is 108 % of control.

What about the T/C [8] of the same molecule?
Its T/C is 98 % of control.

What about the T/C [9] of the same molecule?
Its T/C is 103 % of control.

What does the source list for Cc1ccc(NC(=O)Nc2cccc3ccccc23)c(C)c1?
T/C [10]: 91 % of control; T/C (dose: 200.0 mg/kg/injection, schedule: Q01DX009 (ip), vehicle: Klucel (hydroxypropylcellulose) (HPC)): 88 % of control; T/C [11]: 95 % of control; T/C (dose: 400.0 mg/kg/injection, schedule: Q01DX009 (ip), vehicle: Klucel (hydroxypropylcellulose) (HPC)): 92 % of control; T/C [12]: 91 % of control

How did the T/C (dose: 100.0 mg/kg/injection, schedule: Q04DX002 (ip), vehicle: Klucel (hydroxypropylcellulose) (HPC)) turn out when O=C(O)c1cc(Br)c(Cl)c(Br)c1 was run?
Its T/C is 100 % of control.

What about the T/C (dose: 200.0 mg/kg/injection, schedule: Q04DX002 (ip), vehicle: Klucel (hydroxypropylcellulose) (HPC)) of the same molecule?
The T/C was 100 % of control.

For CN(C)CCC(c1ccccc1)c1cc(Cl)ccn1 (stereo unspecified), which T/C (dose: 6.25 mg/kg/injection, schedule: Q01DX009 (ip), vehicle: saline) is on record?
The T/C was 95 % of control.

And the T/C (dose: 12.5 mg/kg/injection, schedule: Q01DX009 (ip), vehicle: saline)?
Its T/C is 97 % of control.

And the T/C (dose: 12.5 mg/kg/injection, schedule: Q04DX003 (ip), vehicle: saline)?
Its T/C is 106 % of control.

And the T/C [13]?
The T/C was 95 % of control.

And the T/C (dose: 25.0 mg/kg/injection, schedule: Q04DX003 (ip), vehicle: saline)?
Its T/C is 103 % of control.

What about the T/C [14] of the same molecule?
Its T/C is 97 % of control.

What about the T/C (dose: 50.0 mg/kg/injection, schedule: Q04DX003 (ip), vehicle: saline) of the same molecule?
Its T/C is 103 % of control.

What about the T/C [4] of the same molecule?
Its T/C is 100 % of control.

And the T/C [5]?
The T/C was 106 % of control.

Cc1cc2cc3c(=O)[nH]c(=O)[nH]c3nc2cc1C was tested. Which T/C (dose: 100.0 mg/kg/injection, schedule: Q01DX001 (ip), vehicle: saline) did it give?
The T/C was 93 % of control.

What about the T/C (dose: 200.0 mg/kg/injection, schedule: Q01DX001 (ip), vehicle: saline) of the same molecule?
Its T/C is 102 % of control.

And the T/C (dose: 400.0 mg/kg/injection, schedule: Q01DX001 (ip), vehicle: saline)?
Its T/C is 91 % of control.

With O=C(c1ccc(OC(F)F)cc1)N1CCCCC1 as the molecule, how does the T/C [10] read?
Its T/C is 94 % of control.

And the T/C [11]?
Its T/C is 93 % of control.

What about the T/C [12] of the same molecule?
Its T/C is 96 % of control.

For N#Cc1ccc[n+](Cc2ccc3c(c2)OCO3)c1, which T/C (dose: 75.0 mg/kg/injection, schedule: Q01DX001 (ip), vehicle: saline) is on record?
The T/C was 106 % of control.

And the T/C (dose: 150.0 mg/kg/injection, schedule: Q01DX001 (ip), vehicle: saline)?
Its T/C is 106 % of control.

With N=C(c1ccccc1)C1SCCCS1 as the molecule, how does the T/C [10] read?
Its T/C is 103 % of control.

What about the T/C [11] of the same molecule?
Its T/C is 97 % of control.

And the T/C [12]?
The T/C was 97 % of control.

Which T/C (dose: 5.0 mg/kg/injection, schedule: Q01DX001 (ip), vehicle: other) does the source give for Clc1ccccc1C(CI)c1ccccc1Cl here?
The T/C was 98 % of control.

And the T/C (dose: 10.0 mg/kg/injection, schedule: Q01DX001 (ip), vehicle: other)?
Its T/C is 98 % of control.

What about the T/C (dose: 20.0 mg/kg/injection, schedule: Q01DX001 (ip), vehicle: other) of the same molecule?
The T/C was 98 % of control.

And the T/C (dose: 40.0 mg/kg/injection, schedule: Q01DX001 (ip), vehicle: other)?
The T/C was 100 % of control.

And the T/C (dose: 80.0 mg/kg/injection, schedule: Q01DX001 (ip), vehicle: other)?
Its T/C is 100 % of control.

How did the T/C [3] turn out when CCOC(=O)NOP(=O)(N1CC1)N1CC1 was run?
The T/C was 153 % of control.

With COc1ccc(C2(SCC(N)C(=O)O)c3ccccc3-c3ccccc32)cc1 (stereo unspecified) as the molecule, how does the T/C [13] read?
The T/C was 101 % of control.

What about the T/C [14] of the same molecule?
The T/C was 98 % of control.

And the T/C [4]?
The T/C was 95 % of control.

And the T/C [6]?
Its T/C is 93 % of control.

And the T/C (dose: 300.0 mg/kg/injection, schedule: Q01DX009 (ip), vehicle: saline)?
The T/C was 98 % of control.

What about the T/C [8] of the same molecule?
Its T/C is 102 % of control.

With Cc1cccc(NC(=O)Nc2cccc(C(F)(F)F)c2)c1 as the molecule, how does the T/C [1] read?
Its T/C is 97 % of control.

What about the T/C [2] of the same molecule?
Its T/C is 101 % of control.

And the T/C (dose: 400.0 mg/kg/injection, schedule: Q01DX001 (ip), vehicle: carboxymethylcellulose (CMC))?
Its T/C is 97 % of control.

What does the source list for c1ccncc1?
T/C (dose: 6.25 mg/kg/injection, schedule: Q01DX009 (ip), vehicle: alcohol): 96 % of control; T/C (dose: 12.5 mg/kg/injection, schedule: Q01DX009 (ip), vehicle: alcohol): 93 % of control; T/C (dose: 25.0 mg/kg/injection, schedule: Q01DX009 (ip), vehicle: alcohol): 93 % of control; T/C (dose: 100.0 mg/kg/injection, schedule: Q01DX009 (ip), vehicle: Klucel (hydroxypropylcellulose) (HPC)): 88 % of control; T/C [4]: 93 % of control; T/C [10]: 101 % of control; T/C [5]: 101 % of control; T/C [6]: 93 % of control; T/C [11]: 106 % of control; T/C [7]: 89 % of control; T/C [8]: 86 % of control; T/C [12]: 95 % of control; T/C [9]: 91 % of control

With O=c1[nH]n(-c2ccccc2)c(=O)c2ccccc12 as the molecule, how does the T/C (dose: 100.0 mg/kg/injection, schedule: Q01DX001 (ip), vehicle: Klucel (hydroxypropylcellulose) (HPC)) read?
Its T/C is 110 % of control and 102 % of control.

What about the T/C (dose: 200.0 mg/kg/injection, schedule: Q01DX001 (ip), vehicle: Klucel (hydroxypropylcellulose) (HPC)) of the same molecule?
The T/C was 100 % of control and 94 % of control.

What about the T/C (dose: 400.0 mg/kg/injection, schedule: Q01DX001 (ip), vehicle: Klucel (hydroxypropylcellulose) (HPC)) of the same molecule?
The T/C was 100 % of control and 104 % of control.

With CC(C)(C)C#CC#CC(C)(C)C as the molecule, how does the T/C (dose: 10.0 mg/kg/injection, schedule: Q04DX003 (ip), vehicle: saline) read?
Its T/C is 95 % of control.

What about the T/C (dose: 20.0 mg/kg/injection, schedule: Q04DX003 (ip), vehicle: saline) of the same molecule?
Its T/C is 100 % of control.

What about the T/C (dose: 40.0 mg/kg/injection, schedule: Q04DX003 (ip), vehicle: saline) of the same molecule?
The T/C was 92 % of control.
